The text below walks through data of a melting point compilation (Tetko et al.; mined from patent text by program, amines drawn as free bases though some values may be those of a salt).

Molecules are shown by their SMILES.

The term melting point denotes the temperature, or range, at which the solid turns liquid. The compound `CCC(CC)NC(=O)CCCOc1ccc2nc3[nH]c(=O)[nH]c3cc2c1` gave a melting point of 312 to 314 °C.

The compound `Cc1c(OCC(=O)O)ccc2c(=O)c3c(F)cccc3oc12` came in with a melting point of 259 to 261 °C.

Regarding `O=C1CCC(N2Cc3c(NCc4ccco4)cccc3C2=O)C(=O)N1` (configuration not stated), the melting point lay in the range of 248 to 250 °C.

Take `CCOC(=O)COc1ccc2ncnc(Nc3ccc(F)c(Cl)c3)c2c1`: the melting point lay in the range of 161 to 163 °C.

The compound `Cc1nc2c(s1)C(=O)C(=CN1CCOCC1)CC2` registered a melting point of 186 to 187 °C.

Compound `O=c1c(-c2ccccc2)ccc2n1CCSc1ccsc1-2` had a melting point of 139 to 141 °C.

With `CC(C)(C)NC(=O)C1CC(C)(C)NC(C)(C)C1=NO` (configuration not stated), the melting point is 136 to 139 °C.

On to `CCOC(=O)c1cn(C[C@@H]2CN(c3ccc(N4CCC(=CC#N)CC4)c(F)c3)C(=O)O2)nn1`, for which the melting point is 164 to 166 °C.

The compound `Cc1noc(C)c1NCC#CI` returned a melting point of 139 to 140 °C.

`CCCOc1nc(NC(C)C(O)c2ccccc2)c2cnn(-c3ccccc3)c2n1` (configuration not stated) returned a melting point of 136 to 138 °C.

Compound `CCCCCCCCCCCCn1nnc(NC(=O)CS(=O)(=O)Nc2c(C(C)C)cccc2C(C)C)n1` gave a melting point of 138 to 140 °C.

For `NC(=O)Nc1ccc2c(c1)N1CCN=C1S2`, the melting point was 300 °C.

As for `CC(=O)Nc1cccc(C2=CCNc3c(C#N)cnn32)c1`, the melting point was 251 to 254 °C.

Compound `CC(=O)Oc1ccc(CCl)cc1C(OC(C)=O)OC(C)=O` displayed a melting point of 93 to 95 °C.

As for `c1cn(CCc2ccc3c(c2)Cc2c(-c4ccsc4)n[nH]c2-3)cn1`, the melting point was in the range of 160 to 165 °C.

`CCOP(=O)(Cc1ccc(NC(=O)CCc2c(C)noc2-c2ccccc2)cc1)OCC`: the melting point is 114 to 115 °C.

`N#Cc1cnc2sc(-c3ccccc3)cc2c1NCCc1c[nH]cn1` yielded a melting point above 245 °C.

`C=CCNC(=O)c1cnc(SC)nc1NC(C)C` had a melting point of 159 to 161 °C.

With `CCOC(=O)c1c(-c2ccccc2)c2cc(Cl)ccc2n(C)c1=O`, the melting point is 124 to 125 °C.

Take `O=c1cc(-c2ccccc2)[nH]c2c(O)c(O)ccc12`: the melting point fell in the range of 270 to 274 °C.

Regarding `O=C(Nc1cc[nH]c(=O)n1)OCc1ccccc1`, the melting point was above 250 °C.

Regarding `O=C(c1ccc(Br)cc1Cl)N1Cc2cccn2Cc2ccccc21`, the melting point fell in the range of 77 to 80 °C.

Turning to `COC(=O)c1cccc(Nc2nccc(-c3cn[nH]c3-c3ccc(F)cc3)n2)c1`, the melting point is above 265 °C.

Consider `Cc1c(Cc2c[nH]cn2)ccc(O)c1C(N)=O`, for which the melting point came to 263 °C.

Consider `CCN(CC)CC1CCCCN1CCNC(=O)N1c2cc(C)ccc2C(=O)Nc2cccnc21` (configuration not stated), for which the melting point was 183 to 185 °C.

Turning to `CCCCCC(=O)OC(C)c1ccc(-c2ccc(C(=O)O)cc2)cc1` (single isomer, unassigned; (+)), the melting point lay within 133 to 135 °C.

As for `CCOc1ccccc1C(=O)Nc1c(OC)cccc1C(N)=O`, the melting point lay in the range of 177 to 179 °C.

Turning to `CC(C)(C)NS(=O)(=O)c1c(CCl)nc2ccccn12`, the melting point lay in the range of 180 to 182 °C.

Consider `COc1cc2c(cc1O)CCN(C(=O)NCCN(C(C)C)C(C)C)C2c1ccccc1` (configuration not stated), for which the melting point is 91 to 92 °C.

Consider `COCCN1CCc2ccc(Nc3ncc4ccc(-c5ccccc5)n4n3)cc2CC1`, for which the melting point was in the range of 116 to 118 °C.

On to `CCOC(=O)c1sc2nc(-c3ccccc3)cnc2c1N`, for which the melting point lay within 173 to 175 °C.

`NC(=O)N1CCN(c2nn(-c3ccccc3Cl)c3ccccc23)CC1` yielded a melting point of 156 to 158 °C.

Turning to `COc1ccccc1C(=O)NS(=O)(=O)c1ccc(NC(=O)c2ccc(Cl)cc2Cl)cc1`, the melting point lay in the range of 140 to 146 °C.

`COc1ccc(N2CCN(c3c(C)c(C)c4c(c3C)CC(C)(CN(C)C)O4)CC2)cc1` (configuration not stated) came in with a melting point of 145 to 148 °C.

On to `CCOC(=O)N1C(=O)N(C(=O)OCC)C2(C1=O)C(=O)N(Cc1ccc(Cl)c(Cl)c1)c1ccccc12` (configuration not stated), for which the melting point fell in the range of 180 to 182 °C.

The compound `Cc1c(C(=O)NC2CCN(Cc3ccccc3)CC2)c2cc(F)ccc2n1C` had a melting point of 169 to 172 °C.

`Cc1ccc(-c2cc(C(F)(F)F)n3cnc(C#N)c3n2)cc1C(F)(F)F` yielded a melting point of 220 °C.

Compound `CCn1c(=O)c(-c2c(Cl)cccc2Br)cc2cnc(Nc3ccccc3)nc21` returned a melting point of 210 to 214 °C.

In the case of `O=C(Oc1ccccc1)N1C=CC(c2c(-c3ccc(F)cc3)nc3n2CCS3)C=C1`, the melting point is 164 to 166 °C.

In the case of `CN(C)c1cc(Cl)c(C=O)c(Cl)c1`, the melting point lay within 169 to 171 °C.

In turn, `COc1cc2c(cc1F)CC/C2=C\C#N` had a melting point of 197 to 199 °C.

For the compound `COc1cc(CCC2=NNC(=O)CC2)cc(OC)c1OC`, the melting point was in the range of 116 to 117 °C.

For `CCCCCOc1cc(C(=O)O)cc(N)c1C(=O)c1ccccc1`, the melting point lay within 168 to 170 °C.

In turn, `COc1cc(-c2nc(C)c(C(=O)O)s2)cc(OC)c1OC` yielded a melting point of 205 to 207 °C.

On to `CCCCCC(=O)C=CC1=C(CCC(=O)O)C(=O)CC1O` (configuration not stated), for which the melting point is 57 °C.

As for `Cc1ccccc1-c1cn(C)cc(-c2cccc(C(F)(F)F)c2)c1=S`, the melting point was 193 to 195 °C.

Compound `Cn1c(=O)c(C#N)c(Cl)c2ccccc21` showed a melting point of 235 °C.

`Cc1c(OCCCSc2ccc3ncc([N+](=O)[O-])n3n2)ccnc1CO` had a melting point of 135 to 136 °C.

For the compound `CCOC(=O)c1cn(CCc2ccccc2)nc1N`, the melting point was 76.9 to 78.6 °C.

On to `Cn1nc(C(F)F)cc1O`, for which the melting point amounted to 133 °C.

Compound `COc1cc2c(cc1OC)OC(C#N)C2` (configuration not stated) showed a melting point of 162 °C.

Regarding `CCOC(=O)c1cc(C#N)c(C)nc1Cl`, the melting point is 43 to 45 °C.

`COc1cc2c(cc1OC)N(C(=O)OCc1ccccc1)C(C)C(=CN)C2=O` (configuration not stated): the melting point is 143 to 150 °C.

`CC12CCC(C(=Cc3ccc(COc4ccccc4C(=O)O)cc3)C1=O)C2(C)C` (configuration not stated): the melting point worked out at 128 °C.

Consider `COCCc1nc2c(N)nc3ccccc3c2n1CCC(=O)N1CCOCC1`, for which the melting point was 125 to 126 °C.

Take `COc1cc(OC)c(C(=O)Nc2cccc3c2CCN(C)C3)cc1OC`: the melting point was in the range of 159 to 160 °C.

Turning to `CCOC(=O)CC(O)CC(O)C=Cc1c(C(C)C)sc(-c2ccccc2)c1-c1ccc(F)cc1` (configuration not stated), the melting point fell in the range of 123 to 125 °C.

`CCCC(O)(C(=O)Nc1cc(Br)nc(OC)c1)C(C)C` (configuration not stated): the melting point was determined as 116 °C.

Turning to `CCOC(Oc1cc(Cl)cc(Cl)c1)C(=O)NC(C)(C)C` (configuration not stated), the melting point fell in the range of 69 to 71 °C.

In turn, `CC(=O)OC[C@H]1CCn2c(c(C3=C(c4cn(C)c5ccccc45)C(=O)NC3=O)c3ccccc32)C1` came in with a melting point of 238 to 241 °C.

Consider `Cc1cc2c(cc1C)N(C)c1cscc1C(=O)N2CCN(C)C`, for which the melting point lay in the range of 119 to 120 °C.

The compound `N#CNC(=O)[C@@H]1CCC(=O)N1C(=O)OCc1ccccc1` yielded a melting point of 185 to 186 °C.

On to `NC(c1ncn(N)n1)C1CCN(CC2COc3ccccc3O2)CC1` (configuration not stated), for which the melting point fell in the range of 157 to 158 °C.

`CCc1cccc(CC(=O)O)c1OCCCc1cn(-c2ccc(Br)cn2)nc1C(C)C` registered a melting point of 152 °C.

On to `Cc1cc(SCc2cccc3[nH]c(-c4ccc(C(F)(F)F)cc4)cc23)ccc1OCC(=O)O`, for which the melting point fell in the range of 85 to 88 °C.

In turn, `NC(C=C(CP(=O)(O)O)c1ccccc1)C(=O)O` (configuration not stated) registered a melting point of 230 to 233 °C.

For the compound `O=c1[nH]cnc2cc(C(c3ccccc3)n3ccnc3)ccc12` (configuration not stated), the melting point worked out at 205 °C.

`CN1C(=O)CCC2(C)c3ccc(Sc4cccc5ccccc45)cc3CCC12` (single isomer, unassigned; (+)) gave a melting point of 161 to 162 °C.

As for `Cc1cccc(OC2CCN(CCc3c[nH]c4ccccc34)CC2)c1`, the melting point fell in the range of 145 to 146 °C.

As to `CS(=O)(=O)c1ccc(-c2oc3ccc(F)cc3c(=O)c2-c2cccnc2)cc1`, the melting point lay within 177 to 178 °C.

For the compound `CN1CCc2c(cccc2NC(=O)c2ccccc2I)C1`, the melting point lay within 215 to 216 °C.

Regarding `COc1ccc(NC(=S)C2CC2)cn1`, the melting point fell in the range of 79 to 83 °C.

Take `CN(c1ccccc1)c1nc(N)nc2nc[nH]c12`: the melting point is 147 to 152 °C.

`C=CCOC(=O)N[C@H]1CC(=O)O[C@H]1OCc1ccccc1`: the melting point is 108 to 110 °C.

On to `COCC(=O)Nc1nc2ccccc2s1`, for which the melting point lay within 99 to 100 °C.

The compound `CCCCN(CC)c1cc(C)nc(Oc2c(C)cc(Cl)cc2C)c1C` yielded a melting point of 177 to 178 °C.

`COc1ccc(C2(c3ccc(O)c(C)c3)c3ccccc3-c3ccccc32)cc1` came in with a melting point of 186 to 188 °C.

As for `COc1cc(C)nc(Nc2ccc(Cl)cc2)n1`, the melting point lay within 101 to 103 °C.

As for `ClCc1ccc(OCCOc2ccccc2)cc1`, the melting point was in the range of 159 to 160 °C.

`O=c1cc(Oc2ccc([N+](=O)[O-])cc2)cc[nH]1` came in with a melting point of 227 to 228 °C.

`Clc1ccc(C2=NNCC2)cc1` gave a melting point of 90 to 100 °C.

`Cn1c(COc2ccc(CC3SC(=O)NC3=O)cc2)nc2ccc(Oc3ccc(NC(=O)Nc4ccc(C(F)(F)F)cc4)cc3)cc21` (configuration not stated) came in with a melting point of 179 to 180 °C.

With `Cn1nc(C2CCCC2)cc1N`, the melting point is 149 to 150 °C.

Compound `Cc1cccc(Oc2ccc3ccc(N)nc3n2)c1` came in with a melting point of 100 °C.

`N=c1sc2cc(OC(F)(F)F)ccc2n1CCSc1ccccn1` registered a melting point of 104 °C.

Turning to `NC(=NO)c1cc2c(Oc3ccc(Cl)cc3)cncc2s1`, the melting point lay within 194 to 196 °C.

In the case of `CCOP(=O)(/C=C/c1cn(-c2ccccc2)nc1OCc1ccc(OCc2nc(-c3cccc(O)c3)oc2C)c(OC)c1)OCC`, the melting point lay in the range of 127 to 128 °C.

The compound `CCOc1ccccc1CN1CCC(=O)C(C(c2ccc(F)cc2)c2ccc(F)cc2)C1` (configuration not stated) showed a melting point of 137 to 138 °C.

In turn, `CCCCC(=O)c1sc(Oc2ccc3c(c2)OCO3)c2c1CCc1cnn(C)c1-2` had a melting point of 101 to 102 °C.

`CC(=O)OC1CSC(Oc2cccnc2[N+](=O)[O-])C(OC(C)=O)C1OC(C)=O` (configuration not stated): the melting point turned out to be 178 °C.

`Nc1nc2c(ncn2COCCCO)c(=O)[nH]1` yielded a melting point of 223 °C.

Take `CCOCc1nc2c(N)nc(C)c(C)c2n1CCOCC#Cc1cncnc1`: the melting point lay in the range of 122 to 124 °C.
